From the NIST ThermoML archive (doi:10.1021/je700224j)

Details: Liquid

CCCC[n+]1ccn(C)c1.O=S(=O)([N-]S(=O)(=O)C(F)(F)F)C(F)(F)F
Details | mass density [kg/m3]
293.49 K, 101.33 kPa | 1442.2
293.49 K, 1000 kPa | 1442.8
293.49 K, 10000 kPa | 1449
293.49 K, 30000 kPa | 1462.1
293.49 K, 40000 kPa | 1468.4
293.5 K, 5000 kPa | 1445.6
293.5 K, 20000 kPa | 1455.7
303.15 K, 101.33 kPa | 1433
312.84 K, 101.33 kPa | 1423.9
322.3 K, 10000 kPa | 1422.5
322.3 K, 40000 kPa | 1443.6
322.31 K, 101.33 kPa | 1414.9
322.31 K, 1000 kPa | 1415.6
322.31 K, 20000 kPa | 1429.8
322.31 K, 30000 kPa | 1436.8
322.32 K, 5000 kPa | 1418.7
332.78 K, 101.33 kPa | 1405.1
342.98 K, 101.33 kPa | 1395.5
352.31 K, 5000 kPa | 1390.9
352.31 K, 10000 kPa | 1395.1
352.32 K, 20000 kPa | 1403
352.32 K, 30000 kPa | 1410.7
352.32 K, 40000 kPa | 1418
352.33 K, 101.33 kPa | 1386.6
352.33 K, 1000 kPa | 1387.5
373.3 K, 30000 kPa | 1392.7
373.31 K, 5000 kPa | 1371.6
373.31 K, 20000 kPa | 1384.5
373.32 K, 101.33 kPa | 1367.1
373.32 K, 1000 kPa | 1368
373.32 K, 10000 kPa | 1376
373.33 K, 40000 kPa | 1400.4
391.27 K, 1000 kPa | 1351.3
391.28 K, 101.33 kPa | 1350.4
391.28 K, 10000 kPa | 1359.8
391.28 K, 20000 kPa | 1368.8
391.28 K, 30000 kPa | 1377.3
391.28 K, 40000 kPa | 1385.4
391.3 K, 5000 kPa | 1355.1
414.91 K, 20000 kPa | 1348.1
414.91 K, 40000 kPa | 1365.8
414.92 K, 101.33 kPa | 1328.5
414.92 K, 1000 kPa | 1329.5
414.92 K, 5000 kPa | 1333.6
414.92 K, 10000 kPa | 1338.6
414.92 K, 30000 kPa | 1357.2

CCn1cc[n+](C)c1.O=S(=O)([N-]S(=O)(=O)C(F)(F)F)C(F)(F)F
Details | mass density [kg/m3]
293.49 K, 101.33 kPa | 1522.3
293.49 K, 10000 kPa | 1527.8
293.49 K, 20000 kPa | 1533.3
293.49 K, 30000 kPa | 1538.6
293.49 K, 40000 kPa | 1543.6
293.5 K, 1000 kPa | 1522.9
293.5 K, 5000 kPa | 1525
302.68 K, 101.33 kPa | 1513.2
312.64 K, 101.33 kPa | 1503.2
322.3 K, 101.33 kPa | 1493.2
322.3 K, 10000 kPa | 1499.5
322.3 K, 20000 kPa | 1505.3
322.3 K, 40000 kPa | 1516.3
322.31 K, 5000 kPa | 1496.5
322.31 K, 30000 kPa | 1510.9
322.32 K, 1000 kPa | 1494
332.58 K, 101.33 kPa | 1483.2
342.49 K, 101.33 kPa | 1473.6
352.3 K, 20000 kPa | 1476.5
352.3 K, 40000 kPa | 1488.2
352.31 K, 10000 kPa | 1470.2
352.32 K, 101.33 kPa | 1463.6
352.32 K, 5000 kPa | 1467
352.32 K, 30000 kPa | 1482.5
352.34 K, 1000 kPa | 1464.4
373.3 K, 5000 kPa | 1446.5
373.3 K, 30000 kPa | 1462.8
373.31 K, 1000 kPa | 1443.9
373.32 K, 101.33 kPa | 1443.2
373.32 K, 10000 kPa | 1449.9
373.33 K, 20000 kPa | 1456.5
373.33 K, 40000 kPa | 1468.7
391.25 K, 1000 kPa | 1426.3
391.28 K, 10000 kPa | 1432.6
391.28 K, 30000 kPa | 1446
391.29 K, 101.33 kPa | 1425.6
391.29 K, 5000 kPa | 1429
391.31 K, 20000 kPa | 1439.4
391.31 K, 40000 kPa | 1452.3
414.92 K, 101.33 kPa | 1402.4
414.92 K, 5000 kPa | 1406
414.92 K, 10000 kPa | 1409.8
414.92 K, 20000 kPa | 1417.2
414.92 K, 30000 kPa | 1424.2
414.92 K, 40000 kPa | 1430.9
414.93 K, 1000 kPa | 1403.1

CCCCn1cc[n+](C)c1.F[P-](F)(F)(F)(F)F [1-butyl-3-methylimidazolium hexafluorophosphate]
Details | mass density [kg/m3]
293.48 K, 1000 kPa | 1369.9
293.49 K, 101.33 kPa | 1369.8
293.49 K, 20000 kPa | 1378.3
293.5 K, 10000 kPa | 1374
293.5 K, 40000 kPa | 1385.9
293.51 K, 5000 kPa | 1371.7
293.51 K, 30000 kPa | 1382.2
302.73 K, 101.33 kPa | 1362
312.86 K, 101.33 kPa | 1353.5
322.28 K, 101.33 kPa | 1345.5
322.3 K, 10000 kPa | 1350.6
322.3 K, 20000 kPa | 1355.2
322.31 K, 1000 kPa | 1346.2
322.31 K, 40000 kPa | 1363.3
322.33 K, 5000 kPa | 1348.2
322.33 K, 30000 kPa | 1359.3
332.73 K, 101.33 kPa | 1337
342.5 K, 101.33 kPa | 1328.7
352.29 K, 101.33 kPa | 1320.9
352.3 K, 40000 kPa | 1339.8
352.31 K, 1000 kPa | 1321.6
352.31 K, 10000 kPa | 1326.3
352.31 K, 20000 kPa | 1331.2
352.32 K, 5000 kPa | 1323.7
352.34 K, 30000 kPa | 1335.6
373.3 K, 5000 kPa | 1306.6
373.31 K, 10000 kPa | 1309.4
373.32 K, 30000 kPa | 1319
373.33 K, 101.33 kPa | 1303.9
373.33 K, 1000 kPa | 1304.4
373.33 K, 40000 kPa | 1323.3
373.34 K, 20000 kPa | 1314.3
391.27 K, 10000 kPa | 1294.7
391.28 K, 30000 kPa | 1304.7
391.3 K, 101.33 kPa | 1289.1
391.3 K, 5000 kPa | 1292
391.31 K, 20000 kPa | 1300
391.31 K, 40000 kPa | 1309.1
391.32 K, 1000 kPa | 1289.5
414.91 K, 10000 kPa | 1275.6
414.92 K, 20000 kPa | 1281
414.92 K, 40000 kPa | 1290.5
414.93 K, 101.33 kPa | 1269.7
414.93 K, 5000 kPa | 1272.6
414.93 K, 30000 kPa | 1285.9
414.94 K, 1000 kPa | 1270.2

CCCCn1cc[n+](C)c1.F[B-](F)(F)F [1-butyl-3-methylimidazolium tetrafluoroborate]
Details | mass density [kg/m3]
292.94 K, 101.33 kPa | 1204.8
293.49 K, 10000 kPa | 1208.5
293.49 K, 30000 kPa | 1216.5
293.49 K, 40000 kPa | 1220.4
293.5 K, 1000 kPa | 1204.7
293.5 K, 20000 kPa | 1212.6
293.51 K, 5000 kPa | 1206.5
302.8 K, 101.33 kPa | 1197.5
312.79 K, 101.33 kPa | 1190.2
322.3 K, 10000 kPa | 1187.7
322.3 K, 40000 kPa | 1200.4
322.31 K, 1000 kPa | 1183.6
322.31 K, 20000 kPa | 1192
322.31 K, 30000 kPa | 1196.2
322.33 K, 5000 kPa | 1185.4
322.83 K, 101.33 kPa | 1182.9
332.53 K, 101.33 kPa | 1175.8
342.72 K, 101.33 kPa | 1168.6
352.31 K, 10000 kPa | 1166.5
352.32 K, 101.33 kPa | 1161.7
352.32 K, 5000 kPa | 1164.1
352.32 K, 20000 kPa | 1171.1
352.32 K, 30000 kPa | 1175.7
352.33 K, 1000 kPa | 1162.1
352.33 K, 40000 kPa | 1180.01
373.31 K, 5000 kPa | 1149.4
373.31 K, 20000 kPa | 1156.8
373.32 K, 101.33 kPa | 1146.9
373.32 K, 10000 kPa | 1152
373.33 K, 30000 kPa | 1161.6
373.33 K, 40000 kPa | 1166.1
373.34 K, 1000 kPa | 1147.3
391.27 K, 1000 kPa | 1135
391.29 K, 101.33 kPa | 1134.5
391.29 K, 10000 kPa | 1139.7
391.29 K, 20000 kPa | 1144.8
391.29 K, 30000 kPa | 1149.7
391.29 K, 40000 kPa | 1154.4
391.31 K, 5000 kPa | 1137.1
414.92 K, 101.33 kPa | 1116.5
414.92 K, 5000 kPa | 1119.4
414.92 K, 20000 kPa | 1127.4
414.92 K, 40000 kPa | 1137.4
414.93 K, 1000 kPa | 1117.1
414.93 K, 10000 kPa | 1122.1
414.93 K, 30000 kPa | 1132.5

CCOS(=O)(=O)[O-].CCn1cc[n+](C)c1 [1-ethyl-3-methylimidazolium ethyl sulfate]
Details | mass density [kg/m3]
292.49 K, 101.33 kPa | 1242.1
293.46 K, 10000 kPa | 1250.9
293.46 K, 20000 kPa | 1259.3
293.47 K, 1000 kPa | 1242.9
293.47 K, 5000 kPa | 1246.5
293.47 K, 30000 kPa | 1267.5
293.48 K, 40000 kPa | 1275.4
302.61 K, 101.33 kPa | 1236.7
312.47 K, 101.33 kPa | 1230.7
322.3 K, 101.33 kPa | 1224.4
322.31 K, 1000 kPa | 1225.6
322.31 K, 5000 kPa | 1229.5
322.31 K, 20000 kPa | 1243.3
322.31 K, 40000 kPa | 1260.6
322.32 K, 10000 kPa | 1234.2
322.33 K, 30000 kPa | 1252.1
332.74 K, 101.33 kPa | 1218.4
342.42 K, 101.33 kPa | 1212.6
352.32 K, 101.33 kPa | 1206.3
352.33 K, 1000 kPa | 1207.6
352.33 K, 5000 kPa | 1211.8
352.33 K, 10000 kPa | 1216.9
352.34 K, 20000 kPa | 1226.7
352.34 K, 30000 kPa | 1236
352.34 K, 40000 kPa | 1245.2
373.36 K, 101.33 kPa | 1194.1
373.36 K, 1000 kPa | 1195
373.36 K, 5000 kPa | 1199.4
373.36 K, 10000 kPa | 1204.8
373.36 K, 30000 kPa | 1225
373.36 K, 40000 kPa | 1234.4
373.37 K, 20000 kPa | 1215
391.39 K, 101.33 kPa | 1183.2
391.39 K, 1000 kPa | 1184.2
391.39 K, 5000 kPa | 1188.8
391.39 K, 10000 kPa | 1194.6
391.39 K, 30000 kPa | 1215.4
391.39 K, 40000 kPa | 1225.2
391.41 K, 20000 kPa | 1205.1
414.94 K, 10000 kPa | 1180.8
414.94 K, 20000 kPa | 1192.1
414.94 K, 30000 kPa | 1202.9
414.95 K, 101.33 kPa | 1169.1
414.95 K, 1000 kPa | 1170.2
414.95 K, 5000 kPa | 1174.9
414.95 K, 40000 kPa | 1213.2
